Measurements taken from patent US11542259B2, “Compounds for the treatment of kinase-dependent disorders” (Exelixis, Inc., priority 2018, dated 2023).

What was measured:
[1] = target: Human Met (residues R974-S1390 with A1209G and V1290L) (Homo sapiens, UniProt P08581); test: Human Met kinase assay (33P radiometric, KinaseProfiler); assay type: biochemical; settings: 10 μM ATP, read-out: c-Met IC50
Procedure: Kinase activity and compound inhibition were investigated using the ^33P-Phosphoryl transfer radiometric kinase assay, performed using the KinaseProfiler™ service of Eurofins Pharma Discovery Services UK Limited. Dose-response experiments were performed using nine compound concentrations in a 96-well microtiter plate. For each assay, all compounds were prepared to a 50× final assay concentration (50 μM) in 100% DMSO, then diluted in a half-log series, with the final top concentration at 1 μM. This working stock of the compound was added to the assay well as the first component in the reaction, followed by the remaining components as detailed in the following assay protocols below. The positive control wells (100% kinase activity) contain all components of the reaction including 2% DMSO (control for solvent effects), except the compound of interest. Blank wells contain all components of the reaction, with the reference inhibitor, staurosporine. This reference compound was used to abolish kinase activity and generated the 0% kinase activity base-line. IC50 values were calculated by nonlinear regression analysis using the sigmoidal dose-response (variable slope) curve fit on XLFit version 5.3 (ID Business Solutions).
Human Met (residues R974-S1390 with A1209G and V1290L, 3.4 nM) was incubated with 8 mM MOPS pH 7.0, 0.2 mM EDTA, 250 μM KKKGQEEEYVFIE (SEO ID NO. 45), 1 mM sodium orthovanadate, 5 mM […], 10 mM magnesium acetate, and 10 μM [γ-33P-ATP]. The reaction was initiated by the addition of the Mg/ATP mix. After incubation for 40 minutes at room temperature, the reaction was stopped by the addition of phosphoric acid to a concentration of 0.5%. A reaction aliquot of […] was then spotted onto a P30 filtermat and washed four times for 4 minutes in 0.425% phosphoric acid and once in methanol prior to drying and scintillation counting. Incorporated 33P was measured using the Wallac Microbeta scintillation counter (Perkin Elmer).

[2] = target: AXL (Homo sapiens (Human), UniProt P30530); test: AXL autophosphorylation ELISA in A-172 cells; assay type: cell-based; settings: cellular, Gas6 stimulated
How it was run: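 Serum-starved (24 h) A-172 glioblastoma cells pretreated 1 h with compounds (8-point curve, 0.3% DMSO), then stimulated 15 min with 1 μg/mL Gas6. Lysate phospho-AXL measured by sandwich ELISA against a phospho-AXL standard; IC50 from 4-parameter logistic fit between DMSO and reference-inhibitor controls.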

AXL, sequence (P30530 26-894): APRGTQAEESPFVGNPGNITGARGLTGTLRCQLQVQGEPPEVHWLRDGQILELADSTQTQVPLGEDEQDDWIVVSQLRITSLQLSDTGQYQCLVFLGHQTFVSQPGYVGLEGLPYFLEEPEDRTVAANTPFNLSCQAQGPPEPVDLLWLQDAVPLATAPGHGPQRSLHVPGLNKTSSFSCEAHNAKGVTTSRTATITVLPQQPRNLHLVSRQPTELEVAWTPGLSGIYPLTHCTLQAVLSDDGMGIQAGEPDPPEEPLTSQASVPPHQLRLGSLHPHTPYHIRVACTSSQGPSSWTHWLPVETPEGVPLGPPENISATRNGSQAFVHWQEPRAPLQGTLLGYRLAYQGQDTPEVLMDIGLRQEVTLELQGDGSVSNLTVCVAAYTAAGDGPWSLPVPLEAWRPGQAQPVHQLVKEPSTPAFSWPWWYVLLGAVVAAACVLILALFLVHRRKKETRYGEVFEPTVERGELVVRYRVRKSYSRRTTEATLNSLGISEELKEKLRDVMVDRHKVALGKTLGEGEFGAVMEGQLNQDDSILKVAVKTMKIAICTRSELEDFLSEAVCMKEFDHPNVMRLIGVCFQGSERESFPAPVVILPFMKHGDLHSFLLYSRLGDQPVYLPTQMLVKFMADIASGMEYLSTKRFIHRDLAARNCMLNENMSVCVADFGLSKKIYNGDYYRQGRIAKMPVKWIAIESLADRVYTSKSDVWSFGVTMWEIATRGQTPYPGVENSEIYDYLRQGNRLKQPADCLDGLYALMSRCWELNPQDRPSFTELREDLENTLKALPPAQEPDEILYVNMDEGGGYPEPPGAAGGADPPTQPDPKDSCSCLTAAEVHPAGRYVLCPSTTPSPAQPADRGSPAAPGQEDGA

Row | Compound | IC50 [1] | IC50 [2]
1 | COc1cc2nccc(Oc3ccc(NC(=O)C4(C(=O)Nc5ccc(F)cc5)CC4)cc3)c2cc1C(=O)NC1CN(C)C1 [Compound 14, 1-N′-(4-fluorophenyl)-1-N-[4-[7-methoxy-6-[(1-methylazetidin-3-yl)carbamoyl]quinolin-4-yl]oxyphenyl]cyclopropane-1,1-dicarboxamide] | ≤ 10 nM | ≤ 10 nM
2 | NC(=O)c1cc2c(Oc3ccc(NC(=O)C4(C(=O)Nc5ccc(F)cc5)CC4)cc3)ccnc2cc1F [Compound 67, 1-N-[4-(6-carbamoyl-7-fluoroquinolin-4-yl)oxyphenyl]-1-N′-(4-fluorophenyl)cyclopropane-1,1-dicarboxamide] | 10 to 100 nM | 100 to 300 nM
3 | COc1cc2nccc(Oc3ccc(NC(=O)C4(C(=O)Nc5ccc(F)cc5)CC4)cc3)c2cc1C1CC1 [Compound 187, 1-N-[4-(6-cyclopropyl-7-methoxyquinolin-4-yl)oxyphenyl]-1-N′-(4-fluorophenyl)cyclopropane-1,1-dicarboxamide] | 10 to 100 nM | 10 to 100 nM
4 | COc1cc2nccc(Oc3ccc(NC(=O)C4(C(=O)Nc5ccc(F)cc5)CC4)cc3)c2cc1-c1cccc(C#N)c1F [Compound 175, 1-N-[4-[6-(3-cyano-2-fluorophenyl)-7-methoxyquinolin-4-yl]oxyphenyl]-1-N′-(4-fluorophenyl)cyclopropane-1,1-dicarboxamide] | 10 to 100 nM | 10 to 100 nM
5 | COC(=O)c1ccc2c(Oc3ccc(NC(=O)C4(C(=O)Nc5ccc(F)cc5)CC4)cc3)ccnc2c1 [Compound 162, methyl 4-[4-[[1-[(4-fluorophenyl)carbamoyl]cyclopropanecarbonyl]amino]phenoxy]quinoline-7-carboxylate] | 10 to 100 nM | > 300 nM
6 | CNC(=O)c1ccc2nccc(Oc3ccc(NC(=O)C4(C(=O)Nc5ccc(F)cc5)CC4)cc3)c2c1 [Compound 59, 1-N′-(4-fluorophenyl)-1-N-[4-[6-(methylcarbamoyl)quinolin-4-yl]oxyphenyl]cyclopropane-1,1-dicarboxamide] | 10 to 100 nM | 100 to 300 nM
7 | COc1cc2nccc(Oc3ccc(NC(=O)C4(C(=O)Nc5ccc(F)cc5)CC4)cc3)c2cc1C1(O)CN(C(=O)OC(C)(C)C)C1 [Compound 195, tert-butyl 3-[4-[4-[[1-[(4-fluorophenyl)carbamoyl]cyclopropanecarbonyl]amino]phenoxy]-7-methoxyquinolin-6-yl]-3-hydroxyazetidine-1-carboxylate] | 10 to 100 nM | 100 to 300 nM
8 | COc1cc2nccc(Oc3ccc(NC(=O)C4(C(=O)Nc5ccc(F)cc5)CC4)cc3)c2cc1-c1cccnc1 [Compound 201, 1-N′-(4-Fluorophenyl)-1-N-[4-(7-methoxy-6-pyridin-3-ylquinolin-4-yl)oxyphenyl]cyclopropane-1,1-dicarboxamide] | ≤ 10 nM | 10 to 100 nM
9 | COc1cc2nccc(Oc3ccc(NC(=O)C4(C(=O)Nc5ccc(F)cc5)CC4)cc3)c2cc1N1CC(O)C1 [Compound 199, 1-N′-(4-fluorophenyl)-1-N-[4-[6-(3-hydroxyazetidin-1-yl)-7-methoxyquinolin-4-yl]oxyphenyl]cyclopropane-1,1-dicarboxamide] | ≤ 10 nM | ≤ 10 nM
10 | CNC(=O)c1cc2nccc(Oc3ccc(NC(=O)C4(C(=O)Nc5ccc(F)cc5)CC4)cc3)c2cc1OC [Compound 153, 1-N′-(4-fluorophenyl)-1-N-[4-[6-methoxy-7-(methylcarbamoyl)quinolin-4-yl]oxyphenyl]cyclopropane-1,1-dicarboxamide] | 10 to 100 nM | 10 to 100 nM
11 | COC(=O)c1cc2c(Oc3ccc(NC(=O)C4(C(=O)Nc5ccc(F)cc5)CC4)cc3)ccnc2cc1OC [Compound 5, methyl 4-[4-[[1-[(4-fluorophenyl)carbamoyl]-cyclopropanecarbonyl]amino]-phenoxy]-7-methoxyquinoline-6-carboxylate] | ≤ 10 nM | 10 to 100 nM
12 | COc1cc2nccc(Oc3ccc(NC(=O)C4(C(=O)Nc5ccc(F)cc5)CC4)cc3)c2cc1N1CC(F)(F)C1 [Compound 200, 1-N-[4-[6-(3,3-difluoroazetidin-1-yl)-7-methoxyquinolin-4-yl]oxyphenyl]-1-N′-(4-fluorophenyl)cyclopropane-1,1-dicarboxamide] | 10 to 100 nM | 10 to 100 nM
13 | COC(=O)c1cc2nccc(Oc3ccc(NC(=O)C4(C(=O)Nc5ccc(F)cc5)CC4)cc3)c2cc1C [Compound 140, methyl 4-[4-[[1-[(4-fluorophenyl)carbamoyl]cyclopropanecarbonyl]amino]phenoxy]-6-methylquinoline-7-carboxylate] | 10 to 100 nM | 10 to 100 nM
14 | COc1cc2nccc(Oc3ccc(NC(=O)C4(C(=O)Nc5ccc(F)cc5)CC4)cc3)c2cc1-c1ccccn1 [Compound 176, 1-N′-(4-fluorophenyl)-1-N-[4-(7-methoxy-6-pyridin-2-ylquinolin-4-yl)oxyphenyl]cyclopropane-1,1-dicarboxamide] | 10 to 100 nM | 10 to 100 nM
15 | COc1cc2nccc(Oc3ccc(NC(=O)C4(C(=O)Nc5ccc(F)cc5)CC4)cc3)c2cc1-c1ccncc1 [Compound 202, 1-N′-(4-Fluorophenyl)-1-N-[4-(7-methoxy-6-pyridin-4-ylquinolin-4-yl)oxyphenyl]cyclopropane-1,1-dicarboxamide] | ≤ 10 nM | 10 to 100 nM
16 | COc1cc2nccc(Oc3ccc(NC(=O)C4(C(=O)Nc5ccc(F)cc5)CC4)cc3)c2cc1S(C)(=O)=O [Compound 210, 1-N′-(4-Fluorophenyl)-1-N-[4-(7-methoxy-6-methylsulfonylquinolin-4-yl)oxyphenyl]cyclopropane-1,1-dicarboxamide] | ≤ 10 nM | 10 to 100 nM
17 | COc1cc2nccc(Oc3ccc(NC(=O)C4(C(=O)Nc5ccc(F)cc5)CC4)cc3)c2cc1-c1cnoc1 [Compound 183, 1-N′-(4-fluorophenyl)-1-N-[4-[7-methoxy-6-(1,2-oxazol-4-yl)quinolin-4-yl]oxyphenyl]cyclopropane-1,1-dicarboxamide] | ≤ 10 nM | 10 to 100 nM
18 | COc1cc2nccc(Oc3ccc(NC(=O)C4(C(=O)Nc5ccc(F)cc5)CC4)cc3F)c2cc1C(=O)O [Compound 131, 4-[2-fluoro-4-[[1-[(4-fluorophenyl)carbamoyl]cyclopropanecarbonyl]amino]phenoxy]-7-methoxyquinoline-6-carboxylic acid] | ≤ 10 nM | > 300 nM
19 | COc1cc2nccc(Oc3ccc(NC(=O)C4(C(=O)Nc5ccc(F)cc5)CC4)cc3)c2cc1C#N [Compound 37, 1-N-[4-(6-cyano-7-methoxyquinolin-4-yl)oxyphenyl]-1-N′-(4-fluorophenyl)cyclopropane-1,1-dicarboxamide] | 10 to 100 nM | 10 to 100 nM
20 | COC(=O)c1cc2c(Oc3ccc(NC(=O)C4(C(=O)Nc5ccc(F)cc5)CC4)cc3Cl)ccnc2cc1OC [Compound 128, methyl 4-[2-chloro-4-[[1-[(4-fluorophenyl)carbamoyl]cyclopropanecarbonyl]amino]phenoxy]-7-methoxyquinoline-6-carboxylate] | ≤ 10 nM | 10 to 100 nM
21 | COCCOc1cc2nccc(Oc3ccc(NC(=O)C4(C(=O)Nc5ccc(F)cc5)CC4)cc3)c2cc1C(N)=O [Compound 103, 1-N-[4-[6-carbamoyl-7-(2-methoxyethoxy)quinolin-4-yl]oxyphenyl]-1-N′-(4-fluorophenyl)cyclopropane-1,1-dicarboxamide] | ≤ 10 nM | ≤ 10 nM
22 | COc1cc2c(Oc3ccc(NC(=O)C4(C(=O)Nc5ccc(F)cc5)CC4)cc3)ccnc2cc1C(N)=O [Compound 152, 1-N-[4-(7-carbamoyl-6-methoxyquinolin-4-yl)oxyphenyl]-1-N′-(4-fluorophenyl)cyclopropane-1,1-dicarboxamide] | ≤ 10 nM | 10 to 100 nM
23 | COc1cc2nccc(Oc3ccc(NC(=O)C4(C(=O)Nc5ccc(F)cc5)CC4)cc3)c2cc1C1(O)COC1 [Compound 196, 1-N′-(4-fluorophenyl)-1-N-[4-[6-(3-hydroxyoxetan-3-yl)-7-methoxyquinolin-4-yl]oxyphenyl]cyclopropane-1,1-dicarboxamide] | ≤ 10 nM | 10 to 100 nM
24 | NC(=O)c1ccc2nccc(Oc3ccc(NC(=O)C4(C(=O)Nc5ccc(F)cc5)CC4)cc3)c2c1 [Compound 58, 1-N-[4-(6-carbamoylquinolin-4-yl)oxyphenyl]-1-N′-(4-fluorophenyl)cyclopropane-1,1-dicarboxamide] | 10 to 100 nM | 10 to 100 nM
25 | COC(=O)c1cc2c(Oc3ccc(NC(=O)C4(C(=O)Nc5ccc(F)cc5)CC4)cc3F)ccnc2cc1OC [Compound 129, methyl 4-[2-fluoro-4-[[1-[(4-fluorophenyl)carbamoyl]cyclopropanecarbonyl]amino]phenoxy]-7-methoxyquinoline-6-carboxylate] | ≤ 10 nM | ≤ 10 nM
